The values that follow come from article PMC8435859 (Frontiers in Cellular and Infection Microbiology, 2021).

Molecules are shown by their SMILES. Where two headings read alike, the source gives them in different places.

For data set [1], the system named is prolyl oligopeptidase (POP). Further details: method as in ref Zhou XQ et al., Flavonoids from Scutellaria baicalensis and their bioactivities. The settings on record: concentration of 100 microM; ref Zhou XQ et al., Flavonoids from Scutellaria baicalensis and their bioactivities; cited from earlier work.
Data set [2] concerns human tumor cell line panel. Also on record: method as in Huang Y et al., Journal of Natural Products, 1998. The settings on record: library annotation, ref Huang Y et al., Journal of Natural Products, 1998; cited from earlier work.
Data set [3] deals with GX_P2V. The data set can be described thus: microbe, parasite or virus in culture. The class given is cell-based, Pangolin coronavirus.
The test system of data set [4] is GX_P2V. It is filed as cell-based, Pangolin coronavirus.
A further data set concerns GX_P2V NP protein. It is filed as cell-based, Pangolin coronavirus.
The nature of data set [5]: Cytotoxicity, CellTiter-Blue Cell Viability Assay. The settings on record: African green monkey.
The test system of another data set is SARS-CoV-2 isolate WIV04. The data set can be described thus: Anti-SARS-CoV-2 activity in vitro, viral yield in Vero E6 supernatant by qRT-PCR. The settings on record: for SI: CC50/EC50, SARS-CoV-2 WIV04 in Vero E6; for EC50: SARS-CoV-2 WIV04 MOI 0.01, Vero E6, 24 h.p.i., supernatant qRT-PCR. It is filed as cell-based, Severe acute respiratory syndrome coronavirus 2. The source says:
To verify the drugs screened through the GX_P2V drug screening alternative model, we repeatedly tested the antiviral activity of the above drugs on SARS-CoV-2. In brief, Vero E6 cells were pre-seeded in 48-well plates at a density of 5×10^4 cells/well and continued to be cultured overnight. Two hours before infection, the culture supernatant of Vero E6 cells was discarded and replaced with a DMEM medium containing different concentration gradient drugs. Vero E6 cells were continued to be cultured for 2 hours, which was conducive to the early entry of the drugs into the cells. Vero E6 cells were infected with WIV04 at a MOI=0.01 for 1 h. After discarding the supernatant, the cells were washed twice with DMEM, and the medium was changed to a DMEM medium (10%FBS) containing the corresponding concentration of the drug. After 24 h.p.i, the cell supernatant was collected. According to the manufacturer’s instructions, the viral RNA was extract using Magnetic Bead Virus RNA Extraction Kits (Shanghai Fine Gene Biotech, FG438). The viral yield in the cell supernatant was then quantified by qRT-PCR using HiSxript II One step qRT-PCR SYBRGreen Kit (Vazyme, Nanjing, China).

The test system of the next data set is SARS-CoV-2. Also on record: method as in Cao et al., 2020. The settings on record: SARS-CoV-2 in vitro; ref Cao et al., 2020; cited from earlier work.
The conditions of data set [6]: cited from earlier work; for Solubility in water (in words): library annotation.
A further data set can be described thus: in vitro. The settings on record: African green monkey.
For a further data set, the system named is CYP3A. Also on record: method as in Wang CP, et al. J Physiol Biochem. 2014 Sep;70(3):735-47. The settings on record: ref Wang CP, et al. J Physiol Biochem. 2014 Sep;70(3):735-47; cited from earlier work.
The target in a further data set is yeast-α-glucosidase. Also on record: method as in ref Saw C L L et al., Biopharmaceutics & Drug Disposition, 2014, 34(6):303-311. The settings on record: ref Saw C L L et al., Biopharmaceutics & Drug Disposition, 2014, 34(6):303-311, cited from earlier work.
Another data set relates to Vero E6 cells. As to the kind of experiment: Cytotoxicity, CellTiter-Blue Cell Viability Assay. The settings on record: Vero E6 cells, CellTiter-Blue.
Another data set concerns the target aldose reductase. The settings on record: aldose reductase; vendor library annotation; ref Aida K, et al. Planta Med, 1990; read-out: IC50; cited from earlier work.
The mark [7] stands for this setting: Pangolin coronavirus, Vero C1008, 72 h.
The mark [8] stands for this setting: Severe acute respiratory syndrome coronavirus 2, Vero C1008, 24 h.

For `COc1c(O[C@@H]2O[C@H](C(=O)O)[C@@H](O)[C@H](O)[C@H]2O)cc2oc(-c3ccccc3)cc(=O)c2c1O` [Oroxylin A 7-O-beta-D-glucuronide], in [1], the “inhibition of total prolyl oligopeptidase (POP) activity” value is 34%.
As for `CC(C)C1=CC(=O)[C@@](C)([C@H]2[C@H](O)C[C@@]3(C)[C@@H]4CC=C5[C@@H](CC[C@@H](O[C@@H]6O[C@H](CO)[C@@H](O)[C@H](O)[C@H]6O[C@@H]6O[C@@H](C)[C@H](O)[C@@H](O)[C@H]6O)C5(C)C)[C@]4(C)C(=O)C[C@]23C)O1` [Picfeltarraenin IB], the “cytotoxic activity in vitro” value in [2] was 1. Picfeltarraenin IB and Picfeltarraenin IA displayes no cytotoxic activity in vitro human tumor cell line panel.
As for `CO[C@H]1O[C@@H]2O[C@@]3(C)CC[C@H]4[C@H](C)CC[C@@H]([C@H]1C)[C@@]24OO3` [artemether, reference compound], in the data set with GX_P2V [3] (setting [7]), the EC50 amounted to 3.7 µM. Moreover, in the data set with GX_P2V [4], the “stage of action in time-of-addition assay” value was “functioned on both entry and post-entry stages”. Moreover, the “expression of viral NP protein” value in the data set on GX_P2V NP protein is given as “almost completely inhibited”. In data set [5] (Vero E6 cells), this compound yielded a CC50 greater than 200 µM.
With `C[C@H]1[C@H](OC(=O)CCC(=O)O)O[C@@H]2O[C@@]3(C)CC[C@H]4[C@H](C)CC[C@@H]1[C@@]24OO3` [artesunate, reference compound], the EC50 with GX_P2V [3] (setting [7]) is 10.1 µM; in the data set on SARS-CoV-2 isolate WIV04 (setting [8]) it was 16.2 µM; in the data set with SARS-CoV-2, 13 ± 5.3 µM. The SI in the data set on SARS-CoV-2 isolate WIV04 was determined as 7.84. In addition, the “expression of viral NP protein” value in the data set on GX_P2V NP protein was “most viral NP proteins can be inhibited”. Further, the “Solubility in water (in words)” value in [6] (ref Xu N, et al. Int J Med Sci. 2015, 12(6):524-529.) is “Artesunate is part of the artemisinin group of drugs that treat malaria. It is a semi-synthetic derivative of artemisinin that is water-soluble and may therefore be given by injection. It is on the World Health Organization's List of Essential Medicines”. Moreover, the CC50 in data set [5] and in data set [5] (Vero E6 cells) was 127 µM each time.
In turn, `CCN(CC)CCCC(C)Nc1ccnc2cc(Cl)ccc12` (centres unmarked) [chloroquine] had an SI in the data set with GX_P2V [3] greater than 3.92. Moreover, in the data set with GX_P2V [3] (setting [7]), the EC50 came out at 12.8 µM. This compound also came in with a CC50 in the data set “in vitro” greater than 50 µM.
Regarding `CCN(CCO)CCCC(C)Nc1ccnc2cc(Cl)ccc12` (centres unmarked) [hydroxychloroquine], the SI in the data set on GX_P2V [3] (CC50/EC50, GX_P2V in Vero E6) is listed as 9.157. Besides, the EC50 in the data set on GX_P2V [3] (setting [7]) came to 6.59 µM. Besides, the CC50 in data set [5] is 60.3 µM.
Turning to `CC(C)C1=CC(=O)[C@](C)([C@H]2[C@H](O)C[C@@]3(C)[C@@H]4CC=C5[C@@H](CC[C@@H](O[C@@H]6OC[C@@H](O)[C@H](O)[C@H]6O[C@@H]6O[C@@H](C)[C@H](O)[C@@H](O)[C@H]6O)C5(C)C)[C@]4(C)C(=O)C[C@]23C)O1` [Picfeltarraenin IA], the “cytotoxic activity in vitro” value in data set [2] was 1. Picfeltarraenin IB and Picfeltarraenin IA displayes no cytotoxic activity in vitro human tumor cell line panel.
Regarding `COc1cc2c(c(OC)c1OC)-c1c(cc(OC)c(OC)c1OC)C[C@H](C)[C@H](C)C2` [Schizandrin A], in the data set on CYP3A, the IC50 is 6.6 µM and the Ki is 5.83 µM.
Consider `CCC/C=C1/OC(=O)c2ccccc21` [n-Butylidenephthalide], for which the Ki on yeast-α-glucosidase (noncompetitive fashion, read-out: K(i), yeast-α-glucosidase) was 4860 µM. The IC50 on yeast-α-glucosidase (noncompetitive, read-out: IC(5), inhibition of yeast-α-glucosidase activity) is 2350 µM.
Take `COc1c(/C=C/C(=O)c2ccc(O)cc2)ccc(O)c1O` [licochalcone B, Licochalcone B]: the SI is 4.28 in the data set on GX_P2V [3] and 6.86 with SARS-CoV-2 isolate WIV04. The EC50 in the data set on GX_P2V [3] (read-out: EC50) turned out to be 24.9 µM; in the data set on SARS-CoV-2 isolate WIV04, 15.5 µM. The “expression of viral NP protein” value with GX_P2V NP protein is “most viral NP proteins can be inhibited”. For the same compound, the CC50 with Vero E6 cells was found to be 106 µM.
On to `COc1ccc(-c2cc(=O)c3c(O)cc(O[C@@H]4O[C@H](CO)[C@@H](O)[C@H](O)[C@H]4O[C@@H]4O[C@@H](C)[C@H](O)[C@@H](O)[C@H]4O)cc3o2)cc1O` [Neodiosmin], for which, in data set [6] (ref Mencherini T, et al. Journal of Agricultural and Food Chemistry, 2013, 61(8):1686-1693), the aqueous solubility is 1. Neodiosmin has poor aqueous solubility but exerts a good debittering effect and is a strong antioxidant with potential applications in foods, beverages, and pharmaceutical preparations.
Consider `COc1c(O)cc2oc(-c3ccc(O)cc3)cc(=O)c2c1O` [4', 5,7-trihydroxy-6-methoxyflavone], for which, in data set [1], the “inhibition of total prolyl oligopeptidase (POP) activity” value is recorded as 43%.
With `O=C(/C=C/c1ccc(O)c2c1[C@@H](C(=O)O[C@H](Cc1ccc(O)c(O)c1)C(=O)O)[C@H](c1ccc(O)c(O)c1)O2)O[C@H](Cc1ccc(O)c(O)c1)C(=O)O` [lithospermic acid B], the “Solubility in water (in words)” value in data set [6] (ref Wang J, et al. Evidence-Based Complementary and Alternative Medicine, 2013, 2013:1-16.) was “lithospermic acid B is a water-soluble antioxidant from Salvia extract. It plays significant role of antioxidant effect; antiplatelet aggregation, anticoagulant, and antithrombotic effect”.
For `Cc1cccc(C)c1OCC(=O)N[C@@H](Cc1ccccc1)[C@@H](O)C[C@H](Cc1ccccc1)NC(=O)[C@H](C(C)C)N1CCCNC1=O` [lopinavir], the SI in the data set with GX_P2V [3] (CC50/EC50, GX_P2V in Vero E6) is greater than 2.13. Moreover, the response with GX_P2V [3] (setting [7]) was half-maximal at 11.7 µM (EC50). The CC50 in data set [5] was greater than 25 µM.
In turn, `Cc1c(O)cccc1C(=O)N[C@@H](CSc1ccccc1)[C@H](O)CN1C[C@H]2CCCC[C@H]2C[C@H]1C(=O)NC(C)(C)C` [nelfinavir] had an SI with GX_P2V [3] (CC50/EC50, GX_P2V in Vero E6) of 5.86. The compound also showed an EC50 in the data set on GX_P2V [3] (setting [7]) of 6.71 µM. This compound yielded a CC50 in data set [5] of 39.3 µM.
Regarding `COc1ccc(-c2cc(=O)c3c(OC)c(OC)c(OC)c(OC)c3o2)cc1OC` [Nobiletin], the solubility in water entry in [6] (vendor library annotation, ref Murakami A, et al. Cancer Res, 2000) was “Nobiletin is a natural polymethoxylated flavone isolated from citrus peels with anti-inflammatory and anti-tumor activities. Nobiletin is practically insoluble (in water) and an extremely weak acidic compound (based on its pKa)”.
In turn, `CCC(CC)COC(=O)[C@H](C)N[P@](=O)(OC[C@H]1O[C@@](C#N)(c2ccc3c(N)ncnn23)[C@H](O)[C@@H]1O)Oc1ccccc1` [remdesivir] registered an SI with GX_P2V [3] (CC50/EC50, GX_P2V in Vero E6) greater than 33.78. The compound further gave an EC50 in the data set on GX_P2V [3] (setting [7]) of 0.74 µM. This compound also had a CC50 in data set [5] greater than 25 µM.
Turning to `C=C1C(=O)O[C@@]23[C@H]1CC[C@@H](C)[C@@H]2CC[C@@]1(C)O[C@@H]31` [arteannuin B], the EC50 with GX_P2V [3] (setting [7]) is 8.84 µM; with SARS-CoV-2 isolate WIV04 (setting [8]) it was 12 µM; in the data set with SARS-CoV-2 it was 10.3 ± 1.12 µM. Moreover, in the data set with SARS-CoV-2 isolate WIV04, the SI is 9.72. Also, the “expression of viral NP protein” value in the data set with GX_P2V NP protein is listed as “achieved the same inhibitory effect”. In addition, the results for the CC50 in [5] and in data set [5] (Vero E6 cells) were 111 µM and 117 µM, respectively.
Turning to `COc1cc(O)ccc1/C=C/C(=O)c1ccc(O)cc1` [echinatin], the EC50 in the data set with GX_P2V [3] (setting [7]) is 20.9 µM; in the data set on SARS-CoV-2 isolate WIV04 (setting [8]) it was 7.86 µM. In addition, the SI in the data set on SARS-CoV-2 isolate WIV04 amounted to 15.27. The “expression of viral NP protein” value with GX_P2V NP protein was “most viral NP proteins can be inhibited”. Also, the CC50 in data set [5] was determined as 158 µM; in data set [5] (Vero E6 cells) it was 120 µM.
With `O=C(/C=C/c1ccc(O)cc1)c1ccc(O)cc1O` [Isoliquiritigenin], the IC50 at aldose reductase was 0.32 µM.
For the compound `C=C1CC[C@@H]2[C@](C)(CO)[C@H](O)CC[C@@]2(C)[C@@H]1C/C=C1/C(=O)OC[C@H]1O` [andrographolide], the SI in the data set on GX_P2V [3] (CC50/EC50, GX_P2V in Vero E6) amounted to 14.11; in the data set with SARS-CoV-2 isolate WIV04, 8.61. Moreover, the 50% effective concentration (EC50) with GX_P2V [3] (setting [7]) was determined as 6.79 µM; in the data set with SARS-CoV-2 isolate WIV04 (setting [8]), 11.1 µM. Besides, the “expression of viral NP protein” value in the data set on GX_P2V NP protein is given as “achieved the same inhibitory effect”. Further, the CC50 in data set [5] is 95.8 µM; in [5] (Vero E6 cells) it was 95.7 µM.
